# Test results as given in US20210228531A1, “TARGETED TREATMENT OF AUTISM SPECTRUM DISORDER AND OTHER NEUROLOGICAL OR PSYCHIATRIC DISORDERS” (Tufts Medical Center, Inc., priority 2018, published 2021).
# Columns and labels:
# [1] = after IP or oral administration; cited from earlier work
# [2] = test system: vascular endothelial growth factor (VEGF); details: Jeong et al. 2011; cited from earlier work
# [3] = test system: glucose transporter 1 (GLUT-1); details: Jeong et al. 2011; cited from earlier work
# [4] = clinical trials (U.S. Pat. No. 3,995,061); cited from earlier work
# hnRNP L [5] = experiment: Western Blot analysis of hnRNP L in cultured rat primary cortical neurons; type: cell-based
# From the text: Compounds that modify hnRNP L levels are useful for the development of ASD/mental retardation/neurological disorders.
# hnRNP L [6] = details: cited from earlier work
# BIN1 = details: human osteosarcoma cells (U2OS), proteome analysis; cited from earlier work
# [7] = human osteosarcoma cells (U2OS), proteome analysis
SMILES,toxicity as assessed by LD50 [1],expression of VEGF [2],expression of GLUT-1 [3],tolerability in clinical trials [4],levels of hnRNP L (hnRNP L [5]),increase in hnRNP L levels (hnRNP L [6]; [7]),"increase in the levels of three proteins, including hnRNP L and BIN1 (hnRNP L [6]; [7])",hnRNP L protein levels in vitro (hnRNP L [6]; in vitro (Kang et al. 2006)),increase in BIN1 levels (BIN1)
"CCOc1c(Cl)c(C)c(C=O)c(O)c1C/C=C(C)/C=C/C1(C)C(C)CCC(=O)C1C (stereo not shown) [4-O-ethyl-ascochlorin, 4-O-ethylascochlorin]",low toxicity,–,–,–,–,–,–,–,–
"COc1c(Cl)c(C)c(C=O)c(O)c1C/C=C(C)/C=C/[C@@]1(C)[C@H](C)CCC(=O)[C@@H]1C [MAC, 4-O-methylascochlorin]",low toxicity,increases the expression,increases the expression,well tolerated,–,–,–,–,–
CC(/C=C/[C@@]1(C)[C@H](C)CCC(=O)[C@@H]1C)=C\Cc1c(O)c(Cl)c(C)c(C=O)c1O [ascochlorin],–,–,–,–,increased levels of hnRNP L,12 x,≥ 10 fold,increase hnRNP L protein levels,10 x
